The results in this text go back to US20140378513A1, “USE OF FUNGICIDES IN LIQUID SYSTEMS” (priority 2011, published 2014).

Data set [1] concerns Pest in infected Scenedesmus dimorphus culture. Put plainly: Fungicide efficacy on pest control in infected microalgae culture. The data set is classed as cell-based. The following applies: for Rating: rating scale of 0 to 3 by percent efficacy; for positive efficacy in a first trial confirmed in a second trial: Table 6; for Scenedesmus dimorphus Efficacy confirmation: second trial. From the text: Failure to treat an infected culture results in the collapse and loss of the microalgae culture. […] Test fungicides are graded on a rating scale of 0 to 3 where a score of 0 represents an efficacy of between 0 and 25%, a score of 1 represents an efficacy of between 26 and 50%, a score of 2 represents an efficacy of between 51 and 75% and a score of 3 represents an efficacy of between 76 and 100%.

Data set [2] deals with Scenedesmus dimorphus. Put plainly: Algae sensitivity screen, 96 well, growth rate by A750 over 8 days. The data set is classed as cell-based. How it is done:
(§1) The total volume per well is 200 μl. Each chemical is tested in triplicate.

Data set [3] has as its system Scenedesmus species. Described as above. Format: cell-based. The following applies: 8 days. The method, then:
as §1

For data set [4], the system named is microalgae. Kind of data set: Ranges of microalgae toxicity (serial dilution of fungicide in growing culture). As to conditions: range in which fungicide begins to show growth effects on microalgae. An excerpt:
The present disclosure provides for the introduction of fungicides at an effective concentration. Effective concentrations may be determined according to manufacturer's instructions or may be determined empirically. An effective concentration of a fungicide is not toxic to the microalgae being cultured in the liquid system. Methods to determine toxicity are known in the art and include serial dilutions of a test fungicide in a growing liquid culture of microalgae. One of skill in the art would understand that different microalgae may have different ranges of toxicity that may be determined by growth of a microalga in the presence of a serial dilution of a fungicide.
Algae are screened for sensitivity to chemicals by preparing 180 ml of a log phase culture. The log phase culture is transferred into a 96 well microtiter plate at an absorbance at 750 nm (OD750 or A750) of ˜0.2. Twenty microliters of media is provided into the top row as a negative control, the middle six rows receive a 20 microliter dilution, which is a 10 fold dilution of the chemical at each transfer, of the chemical across an appropriate concentration gradient, and the bottom row receives 20 microliter of the solvent used to solubilize the pesticide alone as a control. The total volume per well is 200 μl. Each chemical is tested in triplicate. The growth of the algae is tracked daily by measuring the A750. After 8 days, the growth rate of the algae is measured by fitting the growth curve to a log model and deriving the maximum growth rate (r). The impact of the chemical is calculated by comparing the r of the algae at various dilutions of the pesticide to the control.

Data set [5] has as its system Desmid species. Kind of data set: Algae sensitivity screen, 96 well, growth rate by A750 over 8 days. Format: cell-based. How it is done: as §1
The mark [6] stands for this setting: log phase culture, 10 fold dilutions.
The mark [7] stands for this setting: Tetradesmus dimorphus, read-out: Scenedesmus dimorphus efficacy.

As to `CO/C=C(/C(=O)OC)c1ccccc1Oc1cc(Oc2ccccc2C#N)ncn1` [azoxystrobin], the Rating in data set [1] is 0 (a score of 0 represents an efficacy of between 0 and 25%).
`O=C(Nc1ccccc1)c1ccccc1I` [benodanil, 2-Iodo-N-phenylbenzamide]: the Scenedesmus dimorphus toxicity in data set [2] (setting [6]) is reported as 0.3125-1.25 ppm. Besides, in data set [3] (setting [6]), the Scenedesmus species toxicity is 0.3125-1.25 ppm. Further, in data set [1], the “positive efficacy in a first trial confirmed in a second trial” value (“positive efficacy” for short) is “not confirmed”; the Rating was 0 (a score of 0 represents an efficacy of between 0 and 25%). The activity at 5 ppm in data set [1] (setting [7]) was 38.7%. The “Ranges of Microalgae toxicity” value in data set [4] is reported as 0.3125-1.25 ppm.
For `CSC(=O)c1cccc2nnsc12` [benzo(1,2,3)thiadiazole-7-carbothioic acid-5-methyl ester], in data set [1] (@ 0.8 ppm, percent of growth of treated culture compared to uninfected control growth rate, first trial), the Scenedesmus dimorphus efficacy was determined as 17.5% @ 0.8 ppm.
As for `CCC(C)c1cc([N+](=O)[O-])cc([N+](=O)[O-])c1OC(=O)C=C(C)C` (centres unmarked) [binapacryl], the Scenedesmus dimorphus toxicity in data set [2] (setting [6]) is given as 0.125-0.5 ppm. For the same molecule, the Scenedesmus species toxicity in data set [3] (setting [6]) is 0.125-0.5 ppm. Besides, the “Ranges of Microalgae toxicity” value in data set [4] is recorded as 0.125-0.5 ppm.
As to `O=C(Nc1ccccc1-c1ccc(Cl)cc1)c1cccnc1Cl` [boscalid], the Rating in data set [1] is 0 (a score of 0 represents an efficacy of between 0 and 25%).
As for `O=[N+]([O-])C(Br)(CO)CO` [bronopol, 2-bromo-2-nitropropane-1,3-diol], the activity at 5 ppm in data set [1] (setting [7]) stood at 14.3%. Also, the Rating in data set [1] was 0 (a score of 0 represents an efficacy of between 0 and 25%).
As to `O=C1C2CC=CCC2C(=O)N1SC(Cl)(Cl)Cl` (centres unmarked) [captan], in data set [5] (setting [6]), the Desmid species toxicity is given as 31.25-125 ppm. Moreover, the Scenedesmus dimorphus toxicity in data set [2] (setting [6]) was 1.953-7.813 ppm. Moreover, the Scenedesmus species toxicity in data set [3] (setting [6]) is reported as 31.25-125 ppm. Besides, the Rating in data set [1] was 0 (a score of 0 represents an efficacy of between 0 and 25%). Moreover, in data set [4], the “Ranges of Microalgae toxicity” value was 1.953-125 ppm.
Regarding `CC1=C(C(=O)Nc2ccccc2)SCCO1` [carboxine, 6-methyl-N-phenyl-2,3-dihydro-1,4-oxathiine-5-carboxamide], the Desmid species toxicity in data set [5] (setting [6]) was 0.977-3.906 ppm. Also, the Scenedesmus dimorphus toxicity in data set [2] (setting [6]) is 0-0.244 ppm. In data set [3] (setting [6]), the Scenedesmus species toxicity was 0.244-0.977 ppm. For the same molecule, in data set [1], the “positive efficacy” value is “not confirmed”; the Rating is 0 (a score of 0 represents an efficacy of between 0 and 25%). Further, the activity at 5 ppm in data set [1] (setting [7]) was 24.6%. Also, the “Ranges of Microalgae toxicity” value in data set [4] is reported as 0.977-3.906 ppm.
In the case of `Cc1ccc(-c2c(Cl)nc(C#N)n2S(=O)(=O)N(C)C)cc1` [cyazofamid], the Desmid species toxicity in data set [5] (Desmid species) is listed as 0.125-0.500 ppm. For the same molecule, in data set [2] (Scenedesmus dimorphus), the Scenedesmus dimorphus toxicity is recorded as 0.03125-0.125 ppm. For the same molecule, in data set [3] (Scenedesmus species), the Scenedesmus species toxicity is on record as 0.03125-0.125 ppm. The Rating in data set [1] was 0 (a score of 0 represents an efficacy of between 0 and 25%). For the same molecule, the “Ranges of Microalgae toxicity” value in data set [4] is 0.03125-0.125 ppm.
For the molecule `CCNC(=O)NC(=O)/C(C#N)=N/OC` [cymoxanil], the Rating in data set [1] was 0 (a score of 0 represents an efficacy of between 0 and 25%).
As to `Cc1cc(C2CC2)nc(Nc2ccccc2)n1` [cyprodinil, 4-Cyclopropyl-6-methyl-N-phenylpyrimidin-2-amine], the activity at 2 ppm in data set [1] (setting [7]) was found to be 8.1%. Further, the Rating in data set [1] is 0 (a score of 0 represents an efficacy of between 0 and 25%).
In the case of `N#CC(Br)(Br)C(N)=O` [dibromocyanoacetamide, 2,2-dibromo-2-cyanoacetamide], in data set [1], the “positive efficacy” value is reported as “not confirmed”; the Rating is 0 (a score of 0 represents an efficacy of between 0 and 25%). In data set [1] (setting [7]), the activity at 5 ppm stood at 35.4%.
Turning to `CNC(=O)/C(=N/OC)c1ccccc1COc1cc(C)ccc1C` [dimoxystrobin], in data set [5] (setting [6]), the Desmid species toxicity was 0.004-0.0156 ppm. Moreover, in data set [2] (setting [6]), the Scenedesmus dimorphus toxicity is reported as 0.0156-0.0625 ppm. Moreover, in data set [3] (setting [6]), the Scenedesmus species toxicity is on record as 0.0156-0.0625 ppm. For the same molecule, the Rating in data set [1] is 0 (a score of 0 represents an efficacy of between 0 and 25%). For the same molecule, the “Ranges of Microalgae toxicity” value in data set [4] is listed as 0.004-0.0625 ppm.
As to `N#Cc1sc2c(=O)c3ccccc3c(=O)c=2sc1C#N` [dithianon, 5,10-dioxobenzo[g][1,4]benzodithiine-2,3-dicarbonitrile], the Scenedesmus dimorphus toxicity in data set [2] (Scenedesmus dimorphus) is 0.625-2.5 ppm. Moreover, the “Scenedesmus dimorphus Efficacy confirmation” value in data set [1] (@ 5 ppm) amounted to 52.2% @ 5 ppm. The activity at 5 ppm in data set [1] (setting [7]) stood at 37%. Also, the Rating in data set [1] is 2 (a score of 2 represents an efficacy of between 51 and 75%). The “Ranges of Microalgae toxicity” value in data set [4] is recorded as 0.625-2.5 ppm.
`CC1CN(C2CCCCCCCCCCC2)CC(C)O1` (centres unmarked) [dodemorph]: the Scenedesmus dimorphus toxicity in data set [2] (setting [6]) was 0.195-0.781 ppm. The Scenedesmus species toxicity in data set [3] (setting [6]) is 0.195-0.781 ppm. Moreover, the Rating in data set [1] is 0 (a score of 0 represents an efficacy of between 0 and 25%). In addition, the “Ranges of Microalgae toxicity” value in data set [4] was 0.195-0.781 ppm.
As for `CCCCCCCCCCCCNC(=N)N` [dodine, dodecylguanidinium acetate], the “Scenedesmus dimorphus Efficacy confirmation” value in data set [1] (@ 2 ppm) is 100% @ 2 ppm. Further, in data set [1] (setting [7]), the activity at 2 ppm came to 93.9%. Moreover, the Rating in data set [1] was 3 (a score of 3 represents an efficacy of between 76 and 100%).
For `OC(c1ccc(Cl)cc1)(c1cncnc1)c1ccccc1Cl` (centres unmarked) [fenarimol, (2-chlorophenyl)-(4-chlorophenyl)-pyrimidin-5-ylmethanol], in data set [2] (setting [6]), the Scenedesmus dimorphus toxicity was 0.0489-0.195 ppm. Further, in data set [3] (setting [6]), the Scenedesmus species toxicity is 0.0489-0.195 ppm. In addition, in data set [1], the “positive efficacy” value was “not confirmed”; the Rating is 0 (a score of 0 represents an efficacy of between 0 and 25%). For the same molecule, in data set [1] (setting [7]), the activity at 2 ppm worked out at 31%. In data set [4], the “Ranges of Microalgae toxicity” value is 0.0489-0.195 ppm.
With `CC1(C(=O)Nc2ccc(O)c(Cl)c2Cl)CCCCC1` [fenhexamid], the Desmid species toxicity in data set [5] (Desmid species) is 15.63-62.5 ppm. The Rating in data set [1] is 0 (a score of 0 represents an efficacy of between 0 and 25%). Moreover, the “Ranges of Microalgae toxicity” value in data set [4] is 15.63-62.5 ppm.
For `CCO[PH](=O)O` [fosetyl-aluminum (100 mg), fosetyl-aluminum], in data set [1], the Rating is 0 (a score of 0 represents an efficacy of between 0 and 25%).
As to `CO/N=C(/C(=O)OC)c1ccccc1COc1ccccc1C` [kresoxim-methyl], the Rating in data set [1] is 0 (a score of 0 represents an efficacy of between 0 and 25%).
With `COCC(=O)N(c1c(C)cccc1C)C(C)C(=O)OC` (centres unmarked) [metalaxyl], in data set [1], the Rating was 0 (a score of 0 represents an efficacy of between 0 and 25%).
For `CCCC1COC(Cn2cncn2)(c2ccc(Cl)cc2Cl)O1` (centres unmarked) [propiconazole, 1-[[2-(2,4-dichlorophenyl)-4-propyl-1,3-dioxolan-2-yl]methyl]-1,2,4-triazole], the “Scenedesmus dimorphus Efficacy confirmation” value in data set [1] (@ 0.8 ppm) came to 18.6% @ 0.8 ppm. Moreover, the activity at 0.32 ppm in data set [1] (setting [7]) came out at 30.6%. Also, the Rating in data set [1] was 0 (a score of 0 represents an efficacy of between 0 and 25%).
As for `OC(Cc1ccccc1Cl)(Cn1nc[nH]c1=S)C1(Cl)CC1` (centres unmarked) [prothioconazole], the Rating in data set [1] was 0 (a score of 0 represents an efficacy of between 0 and 25%).
In the case of `CC(C)(C)C(O)(CCc1ccc(Cl)cc1)Cn1cncn1` (centres unmarked) [tebuconazole], in data set [1], the Rating is 0 (a score of 0 represents an efficacy of between 0 and 25%).
Regarding `COC(=O)NC(=S)Nc1ccccc1NC(=S)NC(=O)OC` [thiophanate-methyl, methyl N-[[2-(methoxycarbonylcarbamothioylamino)phenyl]carbamothioyl]carbamate], in data set [1] (setting [7]), the activity at 5 ppm turned out to be 9.6%. For the same molecule, the Rating in data set [1] is 0 (a score of 0 represents an efficacy of between 0 and 25%).
Regarding `CON=C(C(=O)OC)c1ccccc1CON=C(C)c1cccc(C(F)(F)F)c1` [trifloxystrobin], in data set [1], the Rating is 0 (a score of 0 represents an efficacy of between 0 and 25%).
With `O=CNC(N1CCN(C(NC=O)C(Cl)(Cl)Cl)CC1)C(Cl)(Cl)Cl` (centres unmarked) [triforin], the Rating in data set [1] was 0 (a score of 0 represents an efficacy of between 0 and 25%).
As to dinocap, in data set [2] (setting [6]), the Scenedesmus dimorphus toxicity is reported as 0.0039-0.0156 ppm. In addition, in data set [3] (setting [6]), the Scenedesmus species toxicity is listed as 0.0156-0.0625 ppm. In data set [1], the Rating is 0 (a score of 0 represents an efficacy of between 0 and 25%). The “Ranges of Microalgae toxicity” value in data set [4] is recorded as 0.0039-0.0625 ppm.
Turning to mancozeb, the Rating in data set [1] is 0 (a score of 0 represents an efficacy of between 0 and 25%).
